# Experiments:
# [1] = molecular target: T1, human glucocorticoid receptor-α [GRX] isoform (Homo sapiens, UniProt P04150); experiment: Radioligand binding with human glucocorticoid receptor cytosol ([3H]-dexamethasone competition); conditions: GRX cytosol expressed in insect SF21 cells, [3H]-Dex ~0.9 nM, 4° C. overnight; Ki by Cheng-Prusoff, KL ~[…]; read-out: Ki (nM) GR
# T1 construct: host or cells: insect SF21 cells (baculovirus)
# T1 sequence (P04150 1-777): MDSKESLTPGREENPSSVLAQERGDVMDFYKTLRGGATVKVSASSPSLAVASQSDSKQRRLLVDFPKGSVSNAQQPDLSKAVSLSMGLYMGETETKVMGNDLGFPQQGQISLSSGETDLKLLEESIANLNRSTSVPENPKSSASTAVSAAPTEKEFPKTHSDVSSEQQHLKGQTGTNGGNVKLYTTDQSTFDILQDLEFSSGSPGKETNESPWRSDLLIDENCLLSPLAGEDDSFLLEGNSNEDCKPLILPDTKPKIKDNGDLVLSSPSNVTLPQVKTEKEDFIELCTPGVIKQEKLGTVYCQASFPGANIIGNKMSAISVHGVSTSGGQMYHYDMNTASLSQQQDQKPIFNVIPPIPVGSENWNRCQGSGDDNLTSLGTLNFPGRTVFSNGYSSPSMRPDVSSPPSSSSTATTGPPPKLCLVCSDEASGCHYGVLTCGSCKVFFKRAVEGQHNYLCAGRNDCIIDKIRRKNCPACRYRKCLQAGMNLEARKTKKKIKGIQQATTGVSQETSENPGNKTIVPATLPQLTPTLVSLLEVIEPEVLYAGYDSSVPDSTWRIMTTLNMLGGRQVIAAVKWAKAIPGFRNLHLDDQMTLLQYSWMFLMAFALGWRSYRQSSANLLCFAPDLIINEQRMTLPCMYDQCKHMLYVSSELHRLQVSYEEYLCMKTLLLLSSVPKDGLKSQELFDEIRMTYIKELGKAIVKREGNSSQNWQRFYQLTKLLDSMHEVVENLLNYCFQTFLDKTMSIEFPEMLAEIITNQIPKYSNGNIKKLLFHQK
# Source text: Briefly, cytosol preparations of human glucocorticoid receptor-α [GRX] isoform and human progesterone receptor-A [PRA] isoform were obtained from Ligand Pharmaceuticals (San Diego, Calif.). Both receptor cDNAs were cloned into baculovirus expression vectors and expressed in insect SF21 cells. [^3H]-dexamethasone (Dex, specific activity 82-86 Ci/mmole) and [^3H]-progesterone (Prog, specific activity 97-102 Ci/mmol) were purchased from Amersham Life Sciences (Arlington Heights, Ill.). Glass fiber type C multiscreen MAFC NOB plates were from Millipore (Burlington, Mass.). Hydroxyapatide Bio-Gel HTP gel was from Bio-Rad Laboratories (Hercules, Calif.). Tris(hydroxymethyl)aminomethane (Tris), ethylenediaminetetraacetic acid (EDTA), glycerol, dithiothreitol (DTT) and sodium moylybdate were obtained from Sigma Chemicals (St. Louis, Mo.). Microscint-20 scintillation fluid was from Packard Instrument (Meriden, Conn.).
# Stock solutions (32 mM) of compounds were prepared in dimethylsulfoxide (DMSO), and 50× solutions of test compounds were prepared from the 32 mM solution with a 50:50 mixture of DMSO/ethanol. The 50× solution was then diluted with binding buffer that contained 10 mM Tri-HCl, 1.5 mM EDTA, 10% glycerol, 1 mM DTT, 20 mM sodium molybdate, pH 7.5 @4° C. 1% DMSO/ethanol was present in the binding assay.
# For GR binding assays, [^3H]-Dex (˜35,000 dpm (˜0.9 nM)), GRX cytosol (˜35 μg protein), test compounds and binding buffer were mixed in a total volume of 200 μL and incubated at 4° C. overnight in a plate shaker. Specific binding was defined as the difference between binding of [^3H]Dex in the absence and in the presence of 1 μM unlabelled Dex.
# After an overnight incubation, 50 μL of hydroxyapatite (25% weight/volume) slurry were added to each well and plates were incubated for 10 min at 0° C. in a plate shaker. Plates were suctioned with a Millipore vacuum manifold and each well was rinsed with 300 μL of ice-cold binding buffer. A 250 μL aliquot of Packard Microscint-20 was added to each well and the wells were shaken at room temperature for 20 minutes. The amount of radioactivity was determined with a Packard TopCount plate reader.
# The Ki of test compounds was determined using the Cheng-Prusoff equation Ki=IC50/(1+[L*]/[KL]) where L* is the concentration of radioligand and KL is the dissociation constant of the radioligand determined from saturation analysis.
# [2] = molecular target: T2, human progesterone receptor-A [PRA] isoform (Homo sapiens, UniProt P06401); experiment: Radioligand binding with human progesterone receptor cytosol ([3H]-progesterone competition); conditions: PRA cytosol expressed in insect SF21 cells, [3H]Prog ~0.8 nM, 4° C. overnight; Ki by Cheng-Prusoff, KL ~4.5 nM; read-out: Ki (nM) PR
# T2 construct: host or cells: insect SF21 cells (baculovirus)
# T2 sequence (P06401 1-769 isoform P06401-2): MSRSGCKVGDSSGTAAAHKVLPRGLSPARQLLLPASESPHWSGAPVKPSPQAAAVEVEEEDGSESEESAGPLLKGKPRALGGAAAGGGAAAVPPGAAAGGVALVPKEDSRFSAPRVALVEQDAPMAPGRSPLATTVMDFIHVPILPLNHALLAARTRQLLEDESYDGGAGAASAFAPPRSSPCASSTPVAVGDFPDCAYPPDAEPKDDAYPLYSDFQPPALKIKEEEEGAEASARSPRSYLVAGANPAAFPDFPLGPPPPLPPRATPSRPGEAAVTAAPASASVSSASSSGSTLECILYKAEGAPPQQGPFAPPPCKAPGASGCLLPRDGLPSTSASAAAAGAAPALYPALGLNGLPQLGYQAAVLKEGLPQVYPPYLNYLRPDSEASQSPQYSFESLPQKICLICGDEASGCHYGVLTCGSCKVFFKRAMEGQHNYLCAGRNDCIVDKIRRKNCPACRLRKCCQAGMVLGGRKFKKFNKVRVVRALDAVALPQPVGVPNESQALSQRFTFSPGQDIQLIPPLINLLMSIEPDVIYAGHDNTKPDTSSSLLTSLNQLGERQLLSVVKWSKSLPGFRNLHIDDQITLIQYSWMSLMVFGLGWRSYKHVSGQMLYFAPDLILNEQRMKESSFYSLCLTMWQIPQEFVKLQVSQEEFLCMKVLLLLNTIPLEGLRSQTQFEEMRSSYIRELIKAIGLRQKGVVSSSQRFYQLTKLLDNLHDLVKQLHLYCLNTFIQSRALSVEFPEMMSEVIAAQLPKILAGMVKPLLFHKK
Compound,Ki [1] [nM],Ki [2] [nM]
"COc1cccc2c1-c1ccc3c(c1C(=Cc1ccc(Cl)cc1)O2)C(C)=CC(C)(C)N3 [Example 121, 5-[(4-chlorophenyl)methylene]-2,5-dihydro-10-methoxy-2,2,4-trimethyl-1H-[1]benzopyrano[3,4-f]quinoline]",11.3,672
"COc1cccc2c1-c1ccc3c(c1C(=Cc1cccc(C(F)(F)F)c1)O2)C(C)=CC(C)(C)N3 [Example 122, 2,5-Dihydro-10-methoxy-2,2,4-trimethyl-5-[[3-(trifluoromethyl)phenyl]methylene-]1H-[1]-benzopyrano[3,4-f]quinoline]",11.8,1410
COc1cccc2c1-c1ccc3c(c1C(=Cc1c(F)cccc1F)O2)C(C)=CC(C)(C)N3 [Example 123],6.1,9570
COc1cccc2c1-c1ccc3c(c1C(=Cc1ccccc1Cl)O2)C(C)=CC(C)(C)N3 [Example 124],3.2,1610
COc1cccc2c1-c1ccc3c(c1C(=Cc1c(Cl)cccc1Cl)O2)C(C)=CC(C)(C)N3 [Example 125],36.6,≥ 10000
COc1cccc2c1-c1ccc3c(c1C(=Cc1ccccc1F)O2)C(C)=CC(C)(C)N3 [Example 126],2.9,1410
"COc1cccc2c1-c1ccc3c(c1C(=CC1=NC(C)(C)CO1)O2)C(C)=CC(C)(C)N3 [Example 127, 2,5-Dihydro-10-methoxy-2,2,4-trimethyl-5-[(4,5-dihydro-4,4-dimethyl-2-oxazolyl)methylene]-1H-[1]benzopyrano[3,4-f]quinoline]",29.3,≥ 10000
"COc1cccc2c1-c1ccc3c(c1C(=Cc1ccccn1)O2)C(C)=CC(C)(C)N3 [Example 128, 2,5-Dihydro-10-methoxy-2,2,4-trimethyl-5-(2-pyridinylmethylene)-1H-[1]benzopyrano[3,4-f]quinoline]",5.9,≥ 10000
"COc1cccc2c1-c1ccc3c(c1C(c1cccs1)O2)C(C)=CC(C)(C)N3 (stereo not shown) [Example 129, 2,5-Dihydro-10-methoxy-2,2,4-trimethyl-5-(2-thienyl)-1H-[1]benzopyrano[3,4-f]quinoline]",5.5,3620
"C=CCC1Oc2ccc(OC)c(OC)c2-c2ccc3c(c21)C(C)=CC(C)(C)N3 (stereo not shown) [Example 130, 2,5-Dihydro-9,10-dimethoxy-2,2,4-trimethyl-5-(2-propenyl)-1H-[1]benzopyrano[3,4-f]quinoline]",11.9,1050
"COc1ccc2c(c1OC)-c1ccc3c(c1C(C1C=CCCC1)O2)C(C)=CC(C)(C)N3 (stereo not shown) [Example 131, 5-(2-Cyclohexen-1-yl)-2,5-dihydro-9,10-dimethoxy-2,2,4-trimethyl-1H-[1]benzopyrano[3,4-f]quinoline]",7.71,996
"C=C(C)CCC1Oc2cccc(OC)c2-c2ccc3c(c21)C(C)=CC(C)(C)N3 (stereo not shown) [Example 132, 2,5-Dihydro-10-methoxy-5-(3-methyl-3-butenyl)-2,2,4-trimethyl-1H-[1]benzopyrano[3,4-f]quinoline]",230,9890
"C=CC1(C2Oc3cccc(OC)c3-c3ccc4c(c32)C(C)=CC(C)(C)N4)CCCCC1 (stereo not shown) [Example 139, 2,5-Dihydro-10-methoxy-5-(1-ethenyl-1-cyclohexyl)-2,2,4-trimethyl-1H-[1]benzopyrano[3,4-f]quinoline]",235,4800
COc1cccc2c1-c1ccc3c(c1C(C1C=CCCC1(C)C)O2)C(C)=CC(C)(C)N3 (stereo not shown) [Example 140],13,≥ 10000
"COc1cccc2c1-c1ccc3c(c1C(C1CCC=C(CO)C1)O2)C(C)=CC(C)(C)N3 (stereo not shown) [Example 150, 2,5-Dihydro-10-methoxy-5-(3-hydroxymethyl-3-cyclohexenyl)-2,2,4-trimethyl-1H-[1]benzopyrano[3,4-f]quinoline]",106,≥ 10000
"COc1cccc2c1-c1ccc3c(c1C(c1c[nH]c4ccccc14)O2)C(C)=CC(C)(C)N3 (stereo not shown) [Example 151, 2,5-Dihydro-10-methoxy-5-(3-indolyl)-2,2,4-trimethyl-1H-[1]benzopyrano[3,4-f]quinoline]",298,≥ 10000
COc1cccc2c1-c1ccc3c(c1[C@H]([C@@H]1C=C(C)CCC1)O2)C(C)=CC(C)(C)N3 [Example 154],0.7,≥ 10000
COc1cccc2c1-c1ccc3c(c1[C@H]([C@H]1C=C(CO)CCC1)O2)C(C)=CC(C)(C)N3 [Example 155],0.86,≥ 10000
"COc1cccc2c1-c1ccc3c(c1[C@@H]([C@@H]1C=C(CO)CCC1)O2)C(C)=CC(C)(C)N3 [Example 156, (+) (5R,3′S) 2,5-Dihydro-10-methoxy-5-(1-hydroxymethyl-3-cyclohexenyl)-2,2,4-trimethyl-1H-[1]benzopyrano[3,4-f]quinoline]",0.9,4100
"COc1cccc2c1-c1ccc3c(c1[C@H]([C@H]1C=C(C)CCC1)O2)C(C)=CC(C)(C)N3 [Example 157, (−)-(5S,3′R) 2,5-Dihydro-10-methoxy-5-(1-methyl-3-cyclohexenyl)-2,2,4-trimethyl-1H-[1]benzopyrano[3,4-f]quinoline]",1.5,433
COc1cccc2c1-c1ccc3c(c1[C@@H]([C@@H]1C=C(C)CCC1)O2)C(C)=CC(C)(C)N3 [Example 158],48,≥ 10000
COc1cccc2c1-c1ccc3c(c1C(C1C=C(CCl)CCC1)O2)C(C)=CC(C)(C)N3 (stereo not shown) [Example 159],3.8,1840
COCC1=CC(C2Oc3cccc(OC)c3-c3ccc4c(c32)C(C)=CC(C)(C)N4)CCC1 (stereo not shown) [Example 160],1.8,≥ 10000
"COc1cccc2c1-c1ccc3c(c1C(C1C=C(COC(C)=O)CCC1)O2)C(C)=CC(C)(C)N3 [Example 163, rel (5R, 3′R) 2,5-Dihydro-10-methoxy-5-(1-acetoxymethyl-3-cyclohexenyl)-2,2,4-trimethyl-1H-[1]benzopyrano[3,4-f]quinoline]",2.6,≥ 10000
COCC1=CC(C2Oc3cccc(OC)c3-c3ccc4c(c32)C(C)=CC(C)(C)N4)CCC1 (stereo not shown) [Example 164],36,≥ 10000
"CNCC1=CC(C2Oc3cccc(OC)c3-c3ccc4c(c32)C(C)=CC(C)(C)N4)CCC1 [Example 170, rel (5R, 3′R) 2,5-Dihydro-10-methoxy-5-(1-(N-methylamino)methyl-3-cyclohexenyl)2,2,4-trimethyl-1H-[1]benzoppyrano[3,4-f]quinoline]",82,≥ 10000
"C=C(C)CC1Oc2cccc(OC)c2-c2ccc3c(c21)C(C)=CC(C)(C)N3 (stereo not shown) [Example 171, 2,5-Dihydro-10-methoxy-5-(2-methyl-3-propenyl)-2,2,4-trimethyl-1H-[1]benzopyrano[3,4-f]quinoline]",3.3,7430
"COc1cccc2c1-c1ccc3c(c1C(CC1CO1)O2)C(C)=CC(C)(C)N3 (stereo not shown) [Example 175, 2,5-Dihydro-10-methoxy-5-(1,2-epoxy-3-propenyl)-2,2,4-trimethyl-1H-[1]benzopyrano[3,4-f]quinoline]",44,7700
COc1cccc2c1-c1ccc3c(c1C(CCCN1C(=O)c4ccccc4C1=O)O2)C(C)=CC(C)(C)N3 (stereo not shown) [Example 176],88,> 10000

# Source: US6506766B1 (Abbott Laboratories, priority 1998, dated 2003)
